# Data as given in patent publication US10947596B2, “Compositions and methods for identification, assessment, prevention, and treatment of cancer using NFS1 biomarkers and modulators” (Dana-Farber Cancer Institute, Inc., priority 2014, dated 2021).
# Entries after “also recorded” stand apart in the source; their conditions may differ.
# How the values were obtained:
# HIF2alpha = experiment: Western blot for HIF2alpha in C2BBE1 cells; type: cell-based; settings: parental C2BBE1 cells, treatment for 24 hours, relative to untreated
# ferroptosis = settings: cited from earlier work
# PTGS2 = settings: cited from earlier work
# aconitase = experiment: Aconitase activity colorimetric assay in MKN74 lysates; type: cell-based; settings: MKN74, constitutive shRNA or cDNA lentivirus, seven days post-infection
# Protocol: Aconitase activity was assessed three to eleven days post-infection or dox induction in one million cells using the Aconitase Activity calorimetric Assay Kit (Biovision K716-100). Succinate dehydrogenase activity was assessed using the Succinate Dehydrogenase Activity Colorimetric Assay Kit (Biovision K660-100).
# (§1) In order to confirm that such pharmacodynamic markers associated with NFS1 can be used as adjuncts or surrogate markers for directly assessing NFS1 modulation, several experiments were performed. […] The stable lines were replated at 3 days post-dox, cultured for 3 days further, and assessed for NFS1 mRNA knockdown (top right panel) or PTGS2 (Cox2) mRNA levels (bottom right panel) by q-RT-PCR. […]
# Similarly, after 7 days of NFS1 knockdown, decreases in aconitase activity and ferritin protein levels, along with upregulation of TFRC protein we observed (FIG. 15). […] These cells were then either lysed in RIPA buffer, quantified, and equally loaded on a SDS-PAGE gel for analysis by Western by staining for TfRC, NFS1, FTL, or GAPDH (loading control); or trypsinized, counted, lysed, and analyzed for aconitase activity. […] These cells were then either lysed in RIPA buffer, quantified, and equally loaded on a SDS-PAGE gel for analysis by Western and staining for NFS1 and GAPDH; or trypsinized, counted, lysed and analyzed for succinate dehydrogenase activity and aconitase activity. […]
# MKN74 cells = experiment: Clonogenic growth assay in MKN74 cells; type: cell-based; settings: MKN74 stable shRNA lines infected with constitutive cDNA lentivirus (GFP, WT NFS1 or NFS1^C381A), thirteen days post-doxycycline
# Protocol: Clonogenic assays were performed for longer-term assessment of proliferative phenotypes. Three days following doxycycline (dox)-induction (of stable, inducible shRNA lines using 0.5 ug/mL dox) or infection (for constitutive shRNA expression), cells were trypsinized, counted (Countess Automated Cell Counter. Life Technologies), and re-plated in duplicate or triplicate in 6-well dishes at 750 to 3000 cells per well, depending on cell line. Clonogenic growth was monitored by RFP (pRSIT12 vector) or GFP (pRSI6 vector) expression at 1 week intervals using a laser scanning cytometer to measure colony area and numbers of colonies per well (IsoCyte, ImageXpress Velos). Two to three weeks after plating cells, cells were stained using crystal violet as an additional visualization of colony formation. […]
# Knockdown of NFS1 inhibits clonogenic cell growth. […] Three days post-dox-induction, cells were trypsinized, counted, and plated at low density (750 cells per well of a 6-well dish) for assaying clonogenic growth. Additional cells were also collected and assessed by q-RT-PCR for NFS1 knockdown. Clonogenic growth (relative colony area shown in FIG. 5, as well as the number of objects) was monitored by red fluorescent protein (RFP) expression over two weeks scanning the plates on a laser scanning cytometer (IsoCyte, ImageXpress Velos). […]
# ferritin = experiment: Western blot for ferritin (FTH1/FTL) in MKN74; type: cell-based; settings: MKN74, constitutive shRNA or cDNA lentivirus, seven days post-infection
# Protocol: Cells were lysed in NP-40 lysis buffer (Boston BioProducts) supplemented with 1× Halt Protease/Phosphatase Inhibitor Cocktail (Pierce Biotechnology, Inc.), 1 mM Dithiothreitol, and 1 mM Phenylmethanesulfonylfluoride. Lysates were cleared by centrifugation and quantified using a BCA Protein Assay Kit (Pierce Biotechnology, Inc.). Lysates were resolved by SDS-PAGE (using Mini-Protean TGX gradient gels, Bio-Rad Laboratories), transferred to nitrocellulose (using the iBlot Gel, Transfer Device and Dry Blotting System, Life Technologies) and blocked in 5% nonfat milk (Blotting-Grade Blocker, Bio-Rad). […] Peroxidase-conjugated secondary antibodies (Donkey anti-rabbit IgG or Donkey anti-mouse IgG, Jackson ImmunoResearch Laboratories, Inc.) were used at 1:5000 in 5% blocking solution, and protein bands were detected using Pico SuperSignal West Pico Chemiluminescent substrate (Thermo Scientific, Pierce Biotechnology, Inc.).
# as §1
compound,measurement,setting,value
[Cl][Co][Cl] [cobalt chloride],HIF2alpha levels,HIF2alpha,modulation of HIF2alpha levels
"COC(=O)c1ccc([C@H]2c3[nH]c4ccccc4c3C[C@H](C(=O)OC)N2C(=O)CCl)cc1 [1S3R-RSL3, (1S,3R)-RSL3]",ferroptosis,ferroptosis,induce ferroptosis
same,PTGS2 expression,PTGS2,upregulation
"NFS1^C381A: mutant NFS1 that is catalytically dead due to a C381A mutation, dominant negative, expressed from lentiviral cDNA",aconitase activity,aconitase,decrease
same,clonogenic growth,MKN74 cells,growth inhibitory effects comparable to that of NFS1-sh5; also recorded: strongly inhibited cell growth
same,ferritin (FTH1) levels,ferritin,decrease
